In patent US10442807B2, “Aryl substituted bicyclic compounds as herbicides” (FMC Corporation, priority 2015, dated 2019):

How the values were obtained:
Type in all cases: in vivo
[1] = test system: barnyardgrass (Echinochloa crus-galli); assay: Test A postemergence application, visual injury rating; conditions: approx. 10 d, 0 = no effect, 100 = complete control
In short: (§1)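 Seeds sown in loam/sand soil got a directed soil spray before emergence, or plants at one- to two-leaf stage (2-10 cm) were sprayed postemergence; chemical in non-phytotoxic solvent with surfactant. Greenhouse approx. 10 d, then visual injury vs untreated controls on 0 (no effect) to 100 (complete control) scale.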

[2] = test system: foxtail, giant (giant foxtail, Setaria faberii); assay: as above; conditions: approx. 10 d, 0 = no effect, 100 = complete control
In short: as §1

[3] = test system: blackgrass (Alopecurus myosuroides); assay: as above; conditions: approx. 10 d, 0 = no effect, 100 = complete control
In short: as §1

[4] = test system: wheat (Triticum aestivum); assay: as above; conditions: approx. 10 d, 0 = no effect, 100 = complete control
In short: as §1

[5] = test system: pigweed (Amaranthus retroflexus); assay: as above; conditions: approx. 10 d, 0 = no effect, 100 = complete control
In short: as §1

[6] = test system: ryegrass, Italian (Italian ryegrass, Lolium multiflorum); assay: as above; conditions: approx. 10 d, 0 = no effect, 100 = complete control
In short: as §1

[7] = test system: galium (catchweed bedstraw, Galium aparine); assay: as above; conditions: approx. 10 d, 0 = no effect, 100 = complete control
In short: as §1

[8] = test system: ragweed (common ragweed, Ambrosia elation); assay: as above; conditions: approx. 10 d, 0 = no effect, 100 = complete control
In short: as §1

[9] = test system: corn (Zea mays); assay: as above; conditions: approx. 10 d, 0 = no effect, 100 = complete control
In short: as §1

[10] = test system: kochia (Kochia scoparia); assay: as above; conditions: approx. 10 d, 0 = no effect, 100 = complete control
In short: as §1

[11] = test system: barnyardgrass (Echinochloa crus-galli); assay: Test B flooded paddy test, visual plant response rating; conditions: 250 g ai/ha; applied to paddy water at 2-leaf stage; rated after 13 to 15 days; scale 0 to 100, 0 is no effect, 100 is complete control
In short: (§2)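 Water stood 3 cm above the soil when compounds were applied into it, and it was kept there for the whole test. After 13 to 15 days in the greenhouse, plants were compared with controls and rated visually from 0 (no effect) to 100 (complete control).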

[12] = test system: sedge, umbrella (small-flower umbrella sedge, Cyperus difformis); assay: as above; conditions: 250 g ai/ha; applied to paddy water at 2-leaf stage; rated after 13 to 15 days; scale 0 to 100, 0 is no effect, 100 is complete control
In short: as §2

[13] = test system: rice (Oryza sativa); assay: as above; conditions: 250 g ai/ha; applied to paddy water at 2-leaf stage; rated after 13 to 15 days; scale 0 to 100, 0 is no effect, 100 is complete control
In short: as §2

[14] = test system: ducksalad (Heteranthera limosa); assay: as above; conditions: 250 g ai/ha; applied to paddy water at 2-leaf stage; rated after 13 to 15 days; scale 0 to 100, 0 is no effect, 100 is complete control
In short: as §2

[15] = test system: barnyardgrass (Echinochloa crus-galli); assay: Test A preemergence, directed soil spray, visual injury rating; conditions: approx. 10 d, 0 = no effect, 100 = complete control
In short: as §1

[16] = test system: foxtail, giant (giant foxtail, Setaria faberii); assay: as above; conditions: approx. 10 d, 0 = no effect, 100 = complete control
In short: as §1

[17] = test system: pigweed (Amaranthus retroflexus); assay: as above; conditions: approx. 10 d, 0 = no effect, 100 = complete control
In short: as §1

[18] = test system: ryegrass, Italian (Italian ryegrass, Lolium multiflorum); assay: as above; conditions: approx. 10 d, 0 = no effect, 100 = complete control
In short: as §1

[19] = test system: ragweed (common ragweed, Ambrosia elation); assay: as above; conditions: approx. 10 d, 0 = no effect, 100 = complete control
In short: as §1

[20] = test system: kochia (Kochia scoparia); assay: as above; conditions: approx. 10 d, 0 = no effect, 100 = complete control
In short: as §1

SMILES | Barnyardgrass plant response rating (0 to 100 scale) ([1]; 125 g ai/ha) | Barnyardgrass plant response rating (0 to 100 scale) ([1]; 500 g ai/ha) | Foxtail, Giant plant response rating (0 to 100 scale) ([2]; 125 g ai/ha) | Foxtail, Giant plant response rating (0 to 100 scale) ([2]; 500 g ai/ha) | Blackgrass plant response rating (0 to 100 scale) ([3]; 125 g ai/ha) | Blackgrass plant response rating (0 to 100 scale) ([3]; 500 g ai/ha) | Wheat plant response rating (0 to 100 scale) ([4]; 125 g ai/ha) | Wheat plant response rating (0 to 100 scale) ([4]; 500 g ai/ha) | Pigweed plant response rating (0 to 100 scale) ([5]; 125 g ai/ha) | Pigweed plant response rating (0 to 100 scale) ([5]; 500 g ai/ha) | Ryegrass, Italian plant response rating (0 to 100 scale) ([6]; 125 g ai/ha) | Ryegrass, Italian plant response rating (0 to 100 scale) ([6]; 500 g ai/ha) | Galium plant response rating (0 to 100 scale) ([7]; 125 g ai/ha) | Galium plant response rating (0 to 100 scale) ([7]; 500 g ai/ha) | Ragweed plant response rating (0 to 100 scale) ([8]; 125 g ai/ha) | Ragweed plant response rating (0 to 100 scale) ([8]; 500 g ai/ha) | Corn plant response rating (0 to 100 scale) ([9]; 125 g ai/ha) | Corn plant response rating (0 to 100 scale) ([9]; 500 g ai/ha) | Kochia plant response rating (0 to 100 scale) ([10]; 125 g ai/ha) | Kochia plant response rating (0 to 100 scale) ([10]; 500 g ai/ha) | other results
CCc1nnc2n1CC(c1ccc(C(F)(F)F)cc1)C2C(=O)Nc1cccc(F)c1F (centres unmarked) [Compound 8, N-(2,3-difluorophenyl)-3-ethyl-6,7-dihydro-6-[4-(trifluoromethyl)phenyl]-5H-pyrrolo[2,1-c]-1,2,4-triazole-7-carboxamide] | 20 | 50 | 20 | 60 | 0 | 0 | 0 | 0 | 20 | 60 | 0 | 0 | 30 | 50 | 0 | 20 | 0 | 0 | 0 | 40 | Plant response rating, Flood, Barnyardgrass [11]: 0; Plant response rating, Flood, Sedge, Umbrella [12]: 0; Plant response rating, Flood, Rice [13]: 0; Plant response rating, Flood, Ducksalad [14]: 40; Barnyardgrass plant response rating (0 to 100 scale) ([15]; 125 g ai/ha): 30; Barnyardgrass plant response rating (0 to 100 scale) ([15]; 500 g ai/ha): 70; Foxtail, Giant plant response rating (0 to 100 scale) ([16]; 125 g ai/ha): 30; Foxtail, Giant plant response rating (0 to 100 scale) ([16]; 500 g ai/ha): 90; Pigweed plant response rating (0 to 100 scale) ([17]; 125 g ai/ha): 20; Pigweed plant response rating (0 to 100 scale) ([17]; 500 g ai/ha): 50; Ryegrass, Italian plant response rating (0 to 100 scale) ([18]; 125 g ai/ha): 0; Ryegrass, Italian plant response rating (0 to 100 scale) ([18]; 500 g ai/ha): 0; Ragweed plant response rating (0 to 100 scale) ([19]; 125 g ai/ha): 0; Ragweed plant response rating (0 to 100 scale) ([19]; 500 g ai/ha): 0; Kochia plant response rating (0 to 100 scale) ([20]; 125 g ai/ha): 0
CCc1ccc(C2Cn3cnnc3C2C(=O)Nc2ccccc2SC)cc1 (centres unmarked) [Compound 25] | 20 | 30 | 0 | 30 | 0 | 0 | 0 | 0 | 0 | 0 | 0 | 0 | 0 | 0 | 0 | 0 | 0 | 0 | 30 | 30 | Plant response rating, Flood, Barnyardgrass [11]: 0; Plant response rating, Flood, Sedge, Umbrella [12]: 0; Plant response rating, Flood, Rice [13]: 0; Plant response rating, Flood, Ducksalad [14]: 65; Barnyardgrass plant response rating (0 to 100 scale) ([15]; 125 g ai/ha): 0; Barnyardgrass plant response rating (0 to 100 scale) ([15]; 500 g ai/ha): 40; Foxtail, Giant plant response rating (0 to 100 scale) ([16]; 125 g ai/ha): 0; Foxtail, Giant plant response rating (0 to 100 scale) ([16]; 500 g ai/ha): 40; Pigweed plant response rating (0 to 100 scale) ([17]; 125 g ai/ha): 0; Pigweed plant response rating (0 to 100 scale) ([17]; 500 g ai/ha): 0; Ryegrass, Italian plant response rating (0 to 100 scale) ([18]; 125 g ai/ha): 0; Ryegrass, Italian plant response rating (0 to 100 scale) ([18]; 500 g ai/ha): 0; Ragweed plant response rating (0 to 100 scale) ([19]; 125 g ai/ha): 0; Ragweed plant response rating (0 to 100 scale) ([19]; 500 g ai/ha): 0; Kochia plant response rating (0 to 100 scale) ([20]; 125 g ai/ha): 0; Kochia plant response rating (0 to 100 scale) ([20]; 500 g ai/ha): 20
Cc1nnc2n1CC(c1ccc(C(F)(F)F)cc1)C2C(=O)Nc1ccccc1F (centres unmarked) [Compound 24, N-(2-fluorophenyl)-6,7-dihydro-3-methyl-6-[4-(trifluoromethyl)phenyl]-5H-pyrrolo[2,1-c]-1,2,4-triazole-7-carboxamide] | 30 | 80 | 40 | 80 | 0 | 50 | 0 | 30 | 0 | 20 | 0 | 20 | 0 | 60 | 0 | 0 | 0 | 40 | 0 | 0 | Plant response rating, Flood, Barnyardgrass [11]: 0; Plant response rating, Flood, Sedge, Umbrella [12]: 0; Plant response rating, Flood, Rice [13]: 0; Plant response rating, Flood, Ducksalad [14]: 0; Barnyardgrass plant response rating (0 to 100 scale) ([15]; 125 g ai/ha): 0; Barnyardgrass plant response rating (0 to 100 scale) ([15]; 500 g ai/ha): 40; Foxtail, Giant plant response rating (0 to 100 scale) ([16]; 125 g ai/ha): 30; Foxtail, Giant plant response rating (0 to 100 scale) ([16]; 500 g ai/ha): 90; Pigweed plant response rating (0 to 100 scale) ([17]; 125 g ai/ha): 0; Pigweed plant response rating (0 to 100 scale) ([17]; 500 g ai/ha): 20; Ryegrass, Italian plant response rating (0 to 100 scale) ([18]; 125 g ai/ha): 0; Ryegrass, Italian plant response rating (0 to 100 scale) ([18]; 500 g ai/ha): 30; Ragweed plant response rating (0 to 100 scale) ([19]; 125 g ai/ha): 0; Ragweed plant response rating (0 to 100 scale) ([19]; 500 g ai/ha): 30; Kochia plant response rating (0 to 100 scale) ([20]; 125 g ai/ha): 0; Kochia plant response rating (0 to 100 scale) ([20]; 500 g ai/ha): 60
